Measured values: patent US8772252B2, “Coumarin compounds as melanogenesis modifiers and uses thereof” (New York University, priority 2011, dated 2014)

Test system: cultured murine melanocytes (melan-a)
Experiment: Melanin assay in cultured murine melanocytes (melan-a) screened with library compounds
Format: cell-based
Conditions: melan-a cells, 72 hours of incubation
Experimental: The Spectrum Collection library consisting of 2000 drug compounds or natural products represents a source for the identification of compounds useful in the present invention. The library may be screened to identify novel pigmentation inhibitors in cultured murine melanocytes (melan-a). Compounds are dissolved in dimethylsulfoxide (DMSO) to a final concentration of 10 mM. Screening is performed with cultured melanocytes in 24-well plates followed by melanin assay (see below). A minimum change of 50% in melanin formation is established as significant for a pigmentation inhibitor. DMSO may be used as a negative control and the widely used depigmenting agent, hydroquinone, may be used as a positive control on every plate. Primary screening is performed at a final concentration of 1 μM and potential candidates from the primary screening are reconfirmed in duplicate at final concentrations of 1 and 5 μM.
Melan-a cells are plated at 5×10^4 cells per well in 1 ml of culture media in 24-well plates the day before adding the library compounds. All compounds are added at the indicated final concentrations. Cells are harvested after 72 hours of incubation, and the melanin assay is performed.
For further test and mechanism of action studies, the compounds may be purchased from Sigma, MicroSource or other known suppliers. The compounds are dissolved in dimethylsulfoxide (DMSO) to a final concentration of 10 mM, and are tested for their effect on melanin synthesis at the indicated final concentrations.
For the primary and secondary screening, cells were harvested and dissolved in 200 μl of 2N NaOH in 20% DMSO at 70° C. A 180-μl aliquot of the resulting solution was measured for absorbance at 490 nm.
Cells are harvested in extraction buffer (1% Triton X-100, 50 mM Tris, 2 mM EDTA, 150 mM NaCl, pH 7.5) containing a complete protease inhibitor cocktail (Roche). The lysates were centrifuged at 14,000 rpm for 10 minutes at 4° C. BCA protein assay kit (Pierce) was used to measure the protein concentrations of the supernatants, and bovine serum albumin was used as a standard. The remaining pellets were incubated with 100 μl ethanol-ether (1:1) for 10 minutes at room temperature. After removing the ethanol-ether, the pellets were dissolved in 200 μl of 2N NaOH in 20% DMSO at 70° C. A 180-μl aliquot of the resulting solution was measured for absorbance at 490 nm. The melanin contents were normalized to the total amount of protein.

SMILES	activity at 1 µM (Mus musculus, Melan-a, 72 h, 1 μM, read-out: % of control melanin remaining after treatment @ 1 μM)	activity at 5 µM (Mus musculus, Melan-a, 72 h, 5 μM, read-out: % of control melanin remaining after treatment @ 5 μM)	% of control melanin remaining after treatment @ 1 μM (1 μM)	% of control melanin remaining after treatment @ 5 μM (5 μM)
CC(C)(OC(=O)c1ccccc1)[C@@H]1Cc2cc3ccc(=O)oc3cc2O1 [compound 36]	81%	87%	–	–
COc1c(C(C)C)oc2cc3oc(=O)ccc3cc12 [compound 40]	–	–	97%	88%
